# Legend:
# [1] = tested on: HCl-ethanol-induced ulcer at the mucosa of the stomach; assay: Antiulcer activity (HCl-ethanol ulcer); type: in vivo, rats; conditions: rat, one hour before HCl-ethanol; for inhibition in vivo at 5 mg/kg: 5 mg/kg oral; for inhibition in vivo at 2.5 mg/kg: 2.5 mg/kg oral; for inhibition in vivo at 1 mg/kg: 1 mg/kg oral
# Method: 1.5 ml of aqueous 60% ethanol solution containing 150 mM hydrochloric acid was orally administered to rats. One hour thereafter the rats were sacrificed and the length (mm) of HCl-ethanol-induced ulcer which was generated at the mucosa of the stomach was measured. Sum of the length of ulcer per animal is defined as ulcer coefficient. Specimens were each orally administered one hour before the HCl-ethanol administration. Inhibition rate was calculated by dividing the difference of ulcer coefficients of the control group and the specimen-administered group by the ulcer coefficient of the control group.
# [2] = Acute toxicity (oral); conditions: mouse, in vivo, male ICR-strain mice
# Method: Acute toxicity tests through oral administration were carried out using male ICR-strain mice (5 weeks old).
# [3] = tested on: pylorus ligation ulcer at the proventriculus part; assay: Antiulcer activity (pylorus ligation ulcer); type: in vivo, rats; conditions: rat, 100 mg/kg oral, 30 minutes before pylorus ligation; 13 hours
# Method: After rats weighing 210 to 230 g were made to fast for 24 hours, each pylorus part was ligated under ether anesthesia according to Shay et al. method [Castroenterogy, 5, 43 (1945)]. After leaving for 13 hours the animals were sacrificed, and each ulcer which had been generated at the proventriculus part was macroscopicly observed and evaluated according to the following 5 steps of ulcer index:
# 2; There are hyperemia or 5 or less of small ulcers
# (diameter less than 3 mm).
# 3; There are 5 or more of small ulcers or one large
# ulcer (diameter equal to or more than 3 mm).
# 4; There are 2 or more of large ulcers.
# Compound (1) (specimen) as prepared according to the method in Reference example and spizofurone as a control specimen were orally administered 30 minutes before the pylorus ligation. Inhibition rate was calculated by dividing the difference of ulcer coefficients of the control group and the specimen-administered group by the ulcer coefficient of the control group.
smiles,measurement,setting,value
Cc1ccc(/C=C/C2=CC(=O)OC2O)cc1 (centres unmarked) [(2)],inhibition in vivo at 5 mg/kg,"[1]; 1 h, read-out: Inhibition rate",98.3%
CCc1ccc(/C=C/C2=CC(=O)OC2O)cc1 (centres unmarked) [(4)],inhibition in vivo at 2.5 mg/kg,"[1]; 1 h, read-out: Inhibition rate",86.2%
COc1ccc(/C=C/C2=CC(=O)OC2O)cc1 (centres unmarked) [(5)],inhibition in vivo at 2.5 mg/kg,"[1]; 1 h, read-out: Inhibition rate",98.8%
COc1cccc(/C=C/C2=CC(=O)OC2O)c1OC (centres unmarked) [(6)],inhibition in vivo at 1 mg/kg,"[1]; 1 h, read-out: Inhibition rate",59.8%
COc1ccc(OC)c(/C=C/C2=CC(=O)OC2O)c1 (centres unmarked) [(7)],inhibition in vivo at 5 mg/kg,"[1]; 1 h, read-out: Inhibition rate",98.6%
O=C1C=C(/C=C/c2c(F)c(F)c(F)c(F)c2F)C(O)O1 (centres unmarked) [(8)],inhibition in vivo at 1 mg/kg,"[1]; 1 h, read-out: Inhibition rate",67.4%
O=C1C=C(/C=C/c2ccc(F)cc2)C(O)O1 (centres unmarked) [(9)],inhibition in vivo at 5 mg/kg,"[1]; 1 h, read-out: Inhibition rate",100%
O=C1C=C(/C=C/c2ccc(Cl)cc2)C(O)O1 (centres unmarked) [(10)],inhibition in vivo at 5 mg/kg,"[1]; 1 h, read-out: Inhibition rate",100%
O=C1C=C(/C=C/c2cccc(Cl)c2)C(O)O1 (centres unmarked) [(11)],inhibition in vivo at 2.5 mg/kg,"[1]; 1 h, read-out: Inhibition rate",91%
O=C1C=C(/C=C/c2ccc(Cl)cc2Cl)C(O)O1 (centres unmarked) [(12)],inhibition in vivo at 5 mg/kg,"[1]; 1 h, read-out: Inhibition rate",54.1%
O=C1C=C(/C=C/c2ccc([N+](=O)[O-])cc2)C(O)O1 (centres unmarked) [(13)],inhibition in vivo at 2.5 mg/kg,"[1]; 1 h, read-out: Inhibition rate",34.1%
N#Cc1ccc(/C=C/C2=CC(=O)OC2O)cc1 (centres unmarked) [(15)],inhibition in vivo at 5 mg/kg,"[1]; 1 h, read-out: Inhibition rate",99.4%
O=C1C=C(/C=C/c2cccc(O)c2)C(O)O1 (centres unmarked) [(16)],inhibition in vivo at 2.5 mg/kg,"[1]; 1 h, read-out: Inhibition rate",42.7%
"O=C1C=C(/C=C/c2ccccc2)C(O)O1 (centres unmarked) [Compound (1), 5-hydroxy-4-[2-phenyl-(E)-ethenyl]-2(5H)-furanone]",LD50,[2],≥ 2000 mg/kg
same,Inhibition rate,[3],80.3%
same,inhibition in vivo at 5 mg/kg,"[1]; 1 h, read-out: Inhibition rate",97.9%
Cc1cc(C)c(/C=C/C2=CC(=O)OC2O)c(C)c1 (centres unmarked) [Compound (3)],inhibition in vivo at 5 mg/kg,"[1]; 1 h, read-out: Inhibition rate",100%
"CC(=O)c1ccc2c(c1)C(=O)C1(CC1)O2 [Spizofurone, reference compound]",Inhibition rate,[3],1.5%
same,Inhibition rate,[1]; 100 mg/kg oral,86.6%
"CC(=O)CCC=C(C)CCC=C(C)CCC=C(C)CCC=C(C)C [Teprenone, reference compound]",inhibition in vivo at 25 mg/kg,"[1]; 1 h, 25 mg/kg oral, read-out: Inhibition rate",48.9%
